One data set can be described thus: physchem. It counts as physicochemical. As to the method:
The water solubility of FPF polymorph A and B was determined by saturating a certain amount of demineralized water with the respective polymorph, stirring the resulting saturated suspension overnight, filtering the undissolved solid residue, and measuring the dissolved concentration of FPF in the filtrate.

The test system of data set [1] is bird cherry-oat aphid Rhopalosiphum padi. Kind of data set: Systemic efficacy of FPF FS 480 as barley seed treatment against aphids. It counts as in vivo. Conditions: seed treatment with FS 480. An excerpt: Physico-chemical properties are key drivers for systemic plant uptake and biological activity. To test the efficacy of different FPF modifications against the bird cherry-oat aphid Rhopalosiphum padi a sufficient number of barley seeds (variety “Scarlett”, thousand kernel weight: 43.6 g) were manually dressed with a defined amount of the Flupyradifurone FS480 formulated with 100% Form A, 100% Form B and a combination of 99% Form A and 1% Form B, respectively. Test concentrations were 0.15 g active ingredient per kg of seed (commercial dose rate in cereals) and 0.075 g active ingredient per kg of seed. Longitudinal boxes were filled with 5,900 g of a sandy loam soil (75.1% sand, 10.3% clay, 14.8% silt, 1.75% humus, pH 6.9) and 15 seeds per box were sown at spacing of approx. 2.5 cm and at depth of 3 cm. After sowing, boxes were watered to reach 50-70% of field capacity and covered with plastic foil until first plants were emerging. Aphid infestation was conducted at the second leaf stage by adding multiple pieces of infested leaf material to each test box. A second re-infestation was carried out at 3 days after the first infestation using methods described previously. The biological activity of tested FPF modifications was evaluated at 3 and 7 days after the initial infestation by a visual assessment of the colonized leaf area in comparison to the untreated and infested control. Results were expressed in percent efficacy. […] Growing conditions were at a constant temperature of 20° C., 50% relative humidity and 14 hours of illumination using sodium pressure lamps. The experiment comprised 3 replicates per treatment.

Each structure is given as a SMILES string. Converted amounts (≈) assume the structure as drawn.

With `O=C1C=C(N(Cc2ccc(Cl)nc2)CC(F)F)CO1` [Polymorph A, 4-[(6-chloro-3-pyridylmethyl)(2,2-difluoroethyl)amino]furan-2(5H)-one], in the data set “physchem”, the “reduced water solubility of FPF form A” value worked out at 60%. Moreover, in “physchem”, the “water solubility compared with form B” value is on record as “significantly lower than that of form B”. In addition, in “physchem”, the “water solubility of polymorphic form A as share of that of polymorphic form B” value worked out at 60%. In “physchem” (water, thermodynamic from solid, Water Solubility), the solubility (as a rule, how much of the substance goes into solution per volume) is 2000 µg/mL (≈ 6.93 mM). For the same compound, the “systemic biological efficacy compared with form B” value in data set [1] (listed as FPF form A) was “does not lead to a reduced biological efficacy in comparison to FPF form B”; in data set [1] (listed as form A) it was “not reduced”; in data set [1] (listed as polymorphic form A), “at the same level as that of polymorphic form B”.

Take `O=C1C=C(N(Cc2ccc(Cl)nc2)CC(F)F)CO1` [Polymorph B, 4-[(6-chloro-3-pyridylmethyl)(2,2-difluoroethyl)amino]furan-2(5H)-one, reference compound]: in the data set “physchem”, the “Water Solubility” value was found to be 3200 µg/mL.

The values above are taken from patent US20260248131A1, “AGROCHEMICAL FORMULATIONS COMPRISING CRYSTALLINE FORM A OF 4-[(6-CHLORO-3-PYRIDYL-METHYL )(2,2-DIFL UOROETHYL )AMINO]FURAN-2(5H)-ONE” (BAYER AKTIENGESELLSCHAFT, priority 2022, published 2026).
